Columns and labels:
[1] = biological target: Mitogen-activated protein kinase 14 (Homo sapiens) (UniProt Q16539); test: Inhibition of recombinant human full length GST-tagged p38alpha expressed in Escherichia coli at 0.1 uM by Z'-Lyte assay relative to control
U-87 MG [2] = test: Antitumor activity against luciferase-fused human U87MG cells orthotopically xenografted in nude mouse assessed as tumor growth inhibition at 12.5 mg/kg, po qd for 4 weeks by bioluminescence imaging relative to control; type: functional, U-87MG ATCC; settings: 672 h, read-out: TGI
[3] = Fraction unbound in CD-1 mouse plasma at 2 uM incubated for 4 hrs by LC/MS/MS analysis based equillibriun dialysis method; type: ADME, cell-free
[4] = biological target: ALK tyrosine kinase receptor (Homo sapiens) (UniProt Q9UM73); test: Inhibition of recombinant N-terminal GST-tagged human ALK cytoplasmic domain (1058 to 1620 residues) expressed in baculovirus expression system at 0.1 uM by TR-FRET assay relative to control
[5] = Unbound Cmax in CD-1 mouse plasma at 10 mg/kg, po administered as single dose by LC-MS/MS analysis; type: ADME, organism-based; settings: in vivo
[6] = biological target: Serine/threonine-protein kinase 10 (Homo sapiens) (UniProt O94804); test: Inhibition of LOK1 (unknown origin) at 0.1 uM by Z'-Lyte assay relative to control
[7] = biological target: Serine/threonine-protein kinase 10 (Homo sapiens) (UniProt O94804); test: Inhibition of LOK1 (unknown origin) at 1 uM by Z'-Lyte assay relative to control
[8] = biological target: 3-phosphoinositide-dependent protein kinase 1 (Homo sapiens) (UniProt O15530); test: Inhibition of recombinant human full length His-tagged PDK1 expressed in baculovirus expression system at 0.1 uM by Z'-Lyte assay relative to control
[9] = biological target: Casein kinase II subunit alpha (Homo sapiens) (UniProt P68400); test: Inhibition of recombinant full length human His-tagged CK2alpha1 expressed in baculovirus expression system at 0.1 uM by Z'-Lyte assay relative to control
[10] = biological target: PI3-kinase p110-alpha/p85-alpha (Homo sapiens) (UniProt P27986+P42336); test: Inhibition of recombinant full-length human N-terminal His6-tagged p110alpha/p85alpha expressed in baculovirus infected Sf21 cells at 1 uM by ADP-Glo assay relative to control
[11] = AUC (0 to 24 hrs) in ICR mouse at 2 mg/kg, iv administered as single dose by LC-MS/MS analysis; type: ADME, organism-based; set-up: dose 2 mg/kg, time < 24 hr, route intravenous; settings: in vivo
[12] = biological target: Leucine-rich repeat serine/threonine-protein kinase 2 (Homo sapiens) (UniProt Q5S007); test: Inhibition of recombinant human GST-tagged LRRK2 (970 to 2527 residues) expressed in baculovirus expression system at 0.1 uM by TR-FRET assay relative to control
[13] = biological target: Proto-oncogene tyrosine-protein kinase receptor Ret (Homo sapiens) (UniProt P07949); test: Inhibition of recombinant human GST-tagged RET cytoplasmic domain (658 to 1114 residues) expressed in baculovirus expression system at 0.1 uM by Z'-Lyte assay relative to control
[14] = biological target: Serine/threonine-protein kinase MARK1 (Homo sapiens) (UniProt Q9P0L2); test: Inhibition of recombinant human full length GST-tagged MARK1 expressed in baculovirus expression system at 1 uM by Z'-Lyte assay relative to control
[15] = biological target: Tyrosine-protein kinase ITK/TSK (Homo sapiens) (UniProt Q08881); test: Inhibition of recombinant full length human GST-tagged ITK expressed in baculovirus expression system at 0.1 uM by TR-FRET assay relative to control
[16] = Volume of distribution at steady state in ICR mouse at 2 mg/kg, iv administered as single dose by LC-MS/MS analysis; type: ADME, organism-based; settings: in vivo, read-out: Vdss
[17] = biological target: Tyrosine-protein kinase Lyn (Homo sapiens) (UniProt P07948); test: Inhibition of recombinant human full length GST-tagged Lyn-A expressed in insect cells at 1 uM by Z'-Lyte assay relative to control
[18] = biological target: G protein-coupled receptor kinase 6 (Homo sapiens) (UniProt P43250); test: Inhibition of recombinant human full length GST-tagged GRK6 expressed in baculovirus expression system at 1 uM by Z'-Lyte assay relative to control
[19] = biological target: Tyrosine-protein kinase Lck (Homo sapiens) (UniProt P06239); test: Inhibition of recombinant human full length His-tagged LCK expressed in baculovirus expression system at 0.1 uM by Z'-Lyte assay relative to control
[20] = biological target: Proto-oncogene tyrosine-protein kinase Src (Homo sapiens) (UniProt P12931); test: Inhibition of recombinant human full length His-tagged SRC expressed in baculovirus expression system at 1 uM by Z'-Lyte assay relative to control
[21] = biological target: Cyclin-dependent kinase 4/cyclin D1 (Homo sapiens) (UniProt P11802+P24385); test: Inhibition of recombinant full length human GST-tagged CDK4/Cyclin-D1 expressed in baculovirus expression system at 0.1 uM by TR-FRET assay relative to control
[22] = Tmax in CD-1 mouse plasma at 10 mg/kg, po administered as single dose by LC-MS/MS analysis; type: ADME, organism-based
[23] = test system: Epidermal growth factor receptor (Homo sapiens), P00533 [L858R,T790M]; test: Inhibition of recombinant human GST-tagged EGFR T790M/L858R double mutant expressed in baculovirus expression system at 0.1 uM by TR-FRET assay relative to control
[24] = biological target: Insulin receptor (Homo sapiens) (UniProt P06213); test: Inhibition of recombinant human GST-tagged INSR cytoplasmic domain expressed in baculovirus expression system at 0.1 uM by Z'-Lyte assay relative to control
[25] = Half life in CD-1 mouse plasma at 10 mg/kg, po administered as single dose by LC-MS/MS analysis; type: ADME, organism-based
[26] = biological target: Tyrosine-protein kinase JAK1 (Homo sapiens) (UniProt P23458); test: Inhibition of recombinant human GST-tagged JAK1 expressed in baculovirus expression system at 0.1 uM by TR-FRET assay relative to control
U-87 MG [27] = test: Antitumor activity against luciferase-fused human U87MG cells orthotopically xenografted in nude mouse assessed as increase in mouse life span at 50 mg/kg, po qd for 5 weeks relative to control; type: functional, U-87MG ATCC; settings: 840 h
[28] = biological target: Misshapen-like kinase 1 (Homo sapiens) (UniProt Q8N4C8); test: Inhibition of recombinant human GST-tagged MINK (1 to 320 residues) expressed in baculovirus expression system at 0.1 uM by Z'-Lyte assay relative to control
[29] = biological target: Protein kinase C beta type (Homo sapiens) (UniProt P05771); test: Inhibition of PKCbeta2 (unknown origin) at 1 uM by Z'-Lyte assay relative to control
[30] = biological target: Tyrosine-protein kinase Tec (Homo sapiens) (UniProt P42680); test: Inhibition of recombinant human full length His-tagged TEC expressed in baculovirus expression system at 1 uM by TR-FRET assay relative to control
[31] = biological target: Fibroblast growth factor receptor 1 (Homo sapiens) (UniProt P11362); test: Inhibition of recombinant human His-tagged FGFR1 cytoplasmic domain expressed in baculovirus expression system at 0.1 uM by Z'-Lyte assay relative to control
Fibroblast growth factor receptor 1 (Homo sapiens), sequence (P11362 22-822 limits assumed): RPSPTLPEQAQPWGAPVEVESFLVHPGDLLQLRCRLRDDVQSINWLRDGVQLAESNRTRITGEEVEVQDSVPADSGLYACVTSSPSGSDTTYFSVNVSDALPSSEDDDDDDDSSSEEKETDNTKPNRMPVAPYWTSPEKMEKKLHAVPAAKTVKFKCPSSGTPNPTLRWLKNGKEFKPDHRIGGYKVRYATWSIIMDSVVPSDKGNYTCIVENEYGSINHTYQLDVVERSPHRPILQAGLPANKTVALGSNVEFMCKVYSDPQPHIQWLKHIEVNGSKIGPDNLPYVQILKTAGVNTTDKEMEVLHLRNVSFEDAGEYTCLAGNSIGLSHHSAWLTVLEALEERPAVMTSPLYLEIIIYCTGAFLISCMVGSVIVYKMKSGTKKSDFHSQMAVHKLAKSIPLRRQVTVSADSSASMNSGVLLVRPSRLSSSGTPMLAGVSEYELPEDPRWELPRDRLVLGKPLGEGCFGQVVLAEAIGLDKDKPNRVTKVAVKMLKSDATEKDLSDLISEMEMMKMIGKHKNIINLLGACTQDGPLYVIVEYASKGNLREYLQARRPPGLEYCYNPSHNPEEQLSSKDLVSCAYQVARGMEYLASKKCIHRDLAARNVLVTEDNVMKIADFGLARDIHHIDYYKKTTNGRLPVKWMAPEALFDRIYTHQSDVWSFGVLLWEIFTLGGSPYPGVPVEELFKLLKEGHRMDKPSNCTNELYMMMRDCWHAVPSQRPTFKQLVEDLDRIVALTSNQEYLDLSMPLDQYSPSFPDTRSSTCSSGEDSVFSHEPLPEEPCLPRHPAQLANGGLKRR

Serine/threonine-protein kinase 10 (Homo sapiens), sequence (O94804 whole entry, looked up): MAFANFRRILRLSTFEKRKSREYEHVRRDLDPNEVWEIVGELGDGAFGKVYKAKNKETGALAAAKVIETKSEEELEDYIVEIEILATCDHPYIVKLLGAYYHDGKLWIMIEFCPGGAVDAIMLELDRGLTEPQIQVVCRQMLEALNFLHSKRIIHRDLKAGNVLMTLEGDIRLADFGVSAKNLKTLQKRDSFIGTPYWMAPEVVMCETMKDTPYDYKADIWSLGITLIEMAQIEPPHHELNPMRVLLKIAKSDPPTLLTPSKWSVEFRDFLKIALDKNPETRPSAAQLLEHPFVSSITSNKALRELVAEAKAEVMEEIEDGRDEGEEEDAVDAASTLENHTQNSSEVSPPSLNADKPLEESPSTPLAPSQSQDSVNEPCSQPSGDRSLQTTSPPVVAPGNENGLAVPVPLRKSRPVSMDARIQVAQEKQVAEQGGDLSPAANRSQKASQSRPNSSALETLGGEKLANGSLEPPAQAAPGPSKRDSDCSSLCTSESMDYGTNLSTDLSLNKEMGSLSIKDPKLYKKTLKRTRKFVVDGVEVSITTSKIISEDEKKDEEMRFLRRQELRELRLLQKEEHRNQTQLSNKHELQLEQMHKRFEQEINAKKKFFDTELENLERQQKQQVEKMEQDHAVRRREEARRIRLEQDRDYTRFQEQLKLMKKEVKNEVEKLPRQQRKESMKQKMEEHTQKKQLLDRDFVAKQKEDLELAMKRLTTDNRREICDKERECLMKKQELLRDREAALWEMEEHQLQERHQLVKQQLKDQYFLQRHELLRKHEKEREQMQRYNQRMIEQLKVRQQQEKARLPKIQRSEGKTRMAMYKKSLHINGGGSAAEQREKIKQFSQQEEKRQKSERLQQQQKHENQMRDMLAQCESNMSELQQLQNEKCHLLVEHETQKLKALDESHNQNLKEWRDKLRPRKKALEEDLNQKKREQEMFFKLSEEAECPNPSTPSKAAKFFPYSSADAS
Tyrosine-protein kinase Tec (Homo sapiens), sequence (P42680 whole entry, the tested form may be a part): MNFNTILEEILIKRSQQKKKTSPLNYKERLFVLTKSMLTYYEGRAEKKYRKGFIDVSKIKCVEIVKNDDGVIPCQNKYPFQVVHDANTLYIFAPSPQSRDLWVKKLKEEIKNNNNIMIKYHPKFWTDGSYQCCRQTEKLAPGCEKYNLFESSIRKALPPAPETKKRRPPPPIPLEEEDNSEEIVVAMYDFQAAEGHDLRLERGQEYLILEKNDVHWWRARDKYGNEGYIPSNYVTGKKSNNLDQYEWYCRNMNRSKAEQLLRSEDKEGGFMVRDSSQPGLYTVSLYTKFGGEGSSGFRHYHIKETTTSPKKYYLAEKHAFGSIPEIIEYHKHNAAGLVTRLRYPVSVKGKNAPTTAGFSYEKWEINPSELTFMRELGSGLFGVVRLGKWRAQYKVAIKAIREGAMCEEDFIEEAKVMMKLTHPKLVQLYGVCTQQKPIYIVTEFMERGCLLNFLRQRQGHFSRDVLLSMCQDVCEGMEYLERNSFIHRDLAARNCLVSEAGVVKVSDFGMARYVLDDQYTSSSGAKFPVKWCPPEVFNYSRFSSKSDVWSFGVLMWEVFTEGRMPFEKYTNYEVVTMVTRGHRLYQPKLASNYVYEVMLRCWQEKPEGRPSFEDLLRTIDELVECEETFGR
Protein kinase C beta type (Homo sapiens), sequence (P05771 2-671 limits assumed): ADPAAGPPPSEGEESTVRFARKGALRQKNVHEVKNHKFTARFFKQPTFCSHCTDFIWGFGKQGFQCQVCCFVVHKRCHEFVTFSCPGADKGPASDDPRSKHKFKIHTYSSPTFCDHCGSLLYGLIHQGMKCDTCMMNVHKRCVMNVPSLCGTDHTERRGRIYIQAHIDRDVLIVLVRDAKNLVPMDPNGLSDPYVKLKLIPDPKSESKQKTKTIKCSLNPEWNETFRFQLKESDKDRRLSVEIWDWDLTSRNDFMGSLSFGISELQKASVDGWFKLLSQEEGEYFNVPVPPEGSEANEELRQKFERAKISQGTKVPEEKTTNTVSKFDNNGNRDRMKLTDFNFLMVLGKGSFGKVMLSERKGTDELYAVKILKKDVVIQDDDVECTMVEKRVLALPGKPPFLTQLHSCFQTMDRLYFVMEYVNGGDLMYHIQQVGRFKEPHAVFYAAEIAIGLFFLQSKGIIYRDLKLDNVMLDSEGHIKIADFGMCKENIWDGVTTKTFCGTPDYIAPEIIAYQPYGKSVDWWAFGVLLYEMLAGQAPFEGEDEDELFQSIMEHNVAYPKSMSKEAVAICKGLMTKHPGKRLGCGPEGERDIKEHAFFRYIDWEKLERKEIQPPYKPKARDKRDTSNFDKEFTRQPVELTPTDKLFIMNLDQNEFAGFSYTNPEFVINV
Tyrosine-protein kinase ITK/TSK (Homo sapiens), sequence (Q08881 whole entry): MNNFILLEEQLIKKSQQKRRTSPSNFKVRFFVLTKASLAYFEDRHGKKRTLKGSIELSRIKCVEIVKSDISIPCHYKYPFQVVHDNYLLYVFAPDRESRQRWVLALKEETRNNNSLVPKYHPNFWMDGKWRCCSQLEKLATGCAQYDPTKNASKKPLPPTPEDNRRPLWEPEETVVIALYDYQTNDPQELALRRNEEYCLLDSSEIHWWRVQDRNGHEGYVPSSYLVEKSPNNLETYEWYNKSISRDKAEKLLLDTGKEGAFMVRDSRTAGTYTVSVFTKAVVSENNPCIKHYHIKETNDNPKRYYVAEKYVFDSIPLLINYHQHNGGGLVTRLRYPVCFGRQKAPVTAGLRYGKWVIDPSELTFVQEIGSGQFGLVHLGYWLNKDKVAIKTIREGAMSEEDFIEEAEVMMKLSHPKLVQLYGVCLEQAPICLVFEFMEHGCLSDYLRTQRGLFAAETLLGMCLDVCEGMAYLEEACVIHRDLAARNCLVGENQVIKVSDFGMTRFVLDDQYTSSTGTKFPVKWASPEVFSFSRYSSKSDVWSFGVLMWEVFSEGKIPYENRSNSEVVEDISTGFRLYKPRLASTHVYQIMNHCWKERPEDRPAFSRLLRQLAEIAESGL
G protein-coupled receptor kinase 6 (Homo sapiens), sequence (P43250 whole entry, looked up): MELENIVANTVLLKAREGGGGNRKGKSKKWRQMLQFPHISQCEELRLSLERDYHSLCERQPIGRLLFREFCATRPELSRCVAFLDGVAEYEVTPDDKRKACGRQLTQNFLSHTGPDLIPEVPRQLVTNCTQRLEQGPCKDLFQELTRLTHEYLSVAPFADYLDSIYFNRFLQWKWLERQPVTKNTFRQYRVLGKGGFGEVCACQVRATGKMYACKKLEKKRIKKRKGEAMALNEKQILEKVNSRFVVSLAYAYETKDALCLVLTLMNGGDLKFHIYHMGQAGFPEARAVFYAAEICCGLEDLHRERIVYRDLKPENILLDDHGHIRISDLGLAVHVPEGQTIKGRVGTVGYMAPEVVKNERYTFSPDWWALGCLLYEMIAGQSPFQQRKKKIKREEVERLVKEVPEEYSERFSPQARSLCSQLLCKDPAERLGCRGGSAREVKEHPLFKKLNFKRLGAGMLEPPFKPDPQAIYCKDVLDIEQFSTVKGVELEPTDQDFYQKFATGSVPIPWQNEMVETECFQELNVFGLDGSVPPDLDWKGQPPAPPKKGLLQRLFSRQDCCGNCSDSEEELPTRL
3-phosphoinositide-dependent protein kinase 1 (Homo sapiens), sequence (O15530 whole entry): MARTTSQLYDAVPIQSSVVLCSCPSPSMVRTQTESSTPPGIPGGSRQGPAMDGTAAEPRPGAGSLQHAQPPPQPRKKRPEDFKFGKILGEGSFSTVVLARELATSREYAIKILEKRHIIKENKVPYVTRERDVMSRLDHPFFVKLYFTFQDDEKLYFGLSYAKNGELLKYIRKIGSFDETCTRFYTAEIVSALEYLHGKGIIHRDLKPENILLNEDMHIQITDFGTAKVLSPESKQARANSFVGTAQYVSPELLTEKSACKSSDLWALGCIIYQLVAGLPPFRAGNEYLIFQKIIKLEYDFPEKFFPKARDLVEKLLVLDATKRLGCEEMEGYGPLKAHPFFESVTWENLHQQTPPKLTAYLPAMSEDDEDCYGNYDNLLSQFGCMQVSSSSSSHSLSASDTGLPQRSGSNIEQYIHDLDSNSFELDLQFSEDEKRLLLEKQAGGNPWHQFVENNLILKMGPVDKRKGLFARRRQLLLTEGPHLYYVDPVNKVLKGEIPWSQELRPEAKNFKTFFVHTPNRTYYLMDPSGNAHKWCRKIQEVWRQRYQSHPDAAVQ

CC1=Nc2c(F)cc(-c3nc(Nc4ccc(C5CCN(C)CC5)cn4)ncc3F)cc2C12CCCC2 [CROZBACICLIB]
inhibition [1]: 0%
inhibition in vivo at 12.5 mg/kg (U-87 MG [2]): 92%
Fu [3]: 0.7%
inhibition [4]: 7%
fCmax [5]: 5.73 ng/mL
inhibition [6]: 11%
inhibition [7]: 81%
inhibition [8]: -3%
inhibition [9]: 5%
inhibition [10]: 4%
AUC(0-t) at 24 h [11]: 1140 ng·h/mL
inhibition [12]: 12%
inhibition [13]: 0%
inhibition [14]: 16%
inhibition [15]: -8%
Vd [16]: 17.8 L/kg
inhibition [17]: 2%
inhibition [18]: 4%
inhibition [19]: 3%
inhibition [20]: 7%
inhibition [21]: 106%
Tmax [22]: 2 h
inhibition [23]: 27%
inhibition [24]: 2%
half-life [25]: 362 min
inhibition [26]: 7%
ILS at 50 mg/kg (U-87 MG [27]): 162%
inhibition [28]: 17%
inhibition [29]: 52%
inhibition [30]: 2%
inhibition [31]: -8%

From ChEMBL document CHEMBL4251601 (Eur J Med Chem, 2018)
